Results on 13 compounds are retold here after patent US20260184710A1, “CASITAS B-LINEAGE LYMPHOMA PROTOONCOGENE B (CBL-B) DEGRADING COMPOUNDS AND ASSOCIATED METHODS OF USE” (Arvinas Operations, Inc., priority 2022, published 2026).

Assay [1] deals with T1, Cbl-b (Homo sapiens, UniProt Q13191).
T1 construct: Cbl-b-HiBit KI Jurkat Cells were purchased from Promega; host or cells: Cbl-b-HiBiT knock-in Jurkat cells
Description: Cbl-b Degradation Method B (Nano-Glo HiBiT lytic detection). In kind it is cell-based. Conditions: Cbl-b-HiBit KI Jurkat Cells, incubated at least 6-24 hours; for DC50: half maximal degradation, read-out: Cbl-b Degredation Method B IC50; for Dmax: maximum degradation observed, read-out: Cbl-b Degredation Method B Dmax (%). The method, boiled down: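 Cbl-b-HiBiT knock-in Jurkat cells (20,000/well) were treated after ~24 h plating with an 11-point 1:3 series for 6-24 h at 37° C. Remaining Cbl-b measured by Nano-Glo HiBiT lytic luminescence. DC50 and Dmax expressed as % of control.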
On the technique in general: The HiBiT peptide binds its large partner to form an active luciferase.

Assay [2] has as its target T1, Cbl-b. Description: Cbl-b Degradation Method A (FACS, anti-Cbl-b antibody staining). The format is cell-based. As to conditions: Cbl-b-HiBit KI Jurkat Cells, incubated at least 20 hours; for DC50: half maximal degradation, read-out: Cbl-b Degredation Method A IC50; for Dmax: Jurkat, maximum degradation observed, read-out: Cbl-b Degredation Method A Dmax (%). The method, boiled down: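 Cbl-b-HiBit KI Jurkat cells treated with compound for at least 20 h at 37 °C, then fixed, permeabilized and stained with anti-Cbl-b antibody plus anti-rabbit AF488 secondary. Cbl-b levels read by FACS; DC50 and Dmax (percent of control) derived.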

T1 sequence (Q13191 whole entry): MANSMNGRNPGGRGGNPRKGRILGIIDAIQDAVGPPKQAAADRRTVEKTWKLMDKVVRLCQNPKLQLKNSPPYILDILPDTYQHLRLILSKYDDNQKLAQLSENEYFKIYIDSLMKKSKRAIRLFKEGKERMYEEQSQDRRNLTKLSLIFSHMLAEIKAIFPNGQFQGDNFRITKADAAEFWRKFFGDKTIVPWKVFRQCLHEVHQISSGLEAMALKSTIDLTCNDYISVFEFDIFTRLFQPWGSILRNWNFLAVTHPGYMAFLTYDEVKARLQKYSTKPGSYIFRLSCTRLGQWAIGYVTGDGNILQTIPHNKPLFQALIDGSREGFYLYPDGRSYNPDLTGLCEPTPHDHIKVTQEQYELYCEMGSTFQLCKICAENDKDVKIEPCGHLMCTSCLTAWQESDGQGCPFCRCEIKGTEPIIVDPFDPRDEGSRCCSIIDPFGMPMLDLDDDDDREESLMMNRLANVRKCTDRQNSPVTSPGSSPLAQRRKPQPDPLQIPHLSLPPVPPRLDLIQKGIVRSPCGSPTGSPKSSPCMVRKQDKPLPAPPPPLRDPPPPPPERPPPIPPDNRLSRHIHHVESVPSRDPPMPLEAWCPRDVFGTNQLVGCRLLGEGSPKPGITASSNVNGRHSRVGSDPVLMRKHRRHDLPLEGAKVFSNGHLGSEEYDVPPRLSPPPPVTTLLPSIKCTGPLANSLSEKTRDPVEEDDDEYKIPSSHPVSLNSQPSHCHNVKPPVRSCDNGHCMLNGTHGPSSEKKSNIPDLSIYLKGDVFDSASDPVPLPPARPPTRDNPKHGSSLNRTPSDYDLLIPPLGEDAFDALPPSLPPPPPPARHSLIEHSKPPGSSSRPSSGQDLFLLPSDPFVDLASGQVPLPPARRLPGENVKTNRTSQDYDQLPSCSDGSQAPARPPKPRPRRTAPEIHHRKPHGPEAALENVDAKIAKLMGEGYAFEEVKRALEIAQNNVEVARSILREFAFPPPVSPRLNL

For the compound `C[C@@H]1C[C@@H](CN2CCN(c3ccc4c(c3)C(=O)N(C3CCC(=O)NC3=O)C4=O)CC2)CN(Cc2cc3c(c(C(F)(F)F)c2)CN(c2cccc(C4(Cc5nncn5C)COC4)c2)C3=O)C1` (stereo partly drawn) [Example 86, 2-(2,6-dioxopiperidin-3-yl)-5-(4-{[(3R,5R)-5-methyl-1-{[2-(3-{3-[(4-methyl-4H-1,2,4-triazol-3-yl)methyl]oxetan-3-yl}phenyl)-3-oxo-7-(trifluoromethyl)-2,3-dihydro-1H-isoindol-5-yl]methyl}piperidin-3-yl]methyl}piperazin-1-yl)-2,3-dihydro-1H-isoindole-1,3-dione], the DC50 at Cbl-b [1] and at Cbl-b [2] was above 500 nM in each case.

`Cn1cnnc1CC1(c2cccc(N3Cc4c(cc(CN5CCC(COCCOc6ccc7c(c6)C(=O)N(C6CCC(=O)NC6=O)C7=O)CC5)cc4C(F)(F)F)C3=O)c2)COC1` (stereo not drawn) [Example 87, 2-(2,6-dioxopiperidin-3-yl)-5-(2-((1-((2-(3-(3-((4-methyl-4H-1,2,4-triazol-3-yl)methyl)oxetan-3-yl)phenyl)-3-oxo-7-(trifluoromethyl)isoindolin-5-yl)methyl)piperidin-4-yl)methoxy)ethoxy)isoindoline-1,3-dione]: the DC50 on Cbl-b [1] was above 500 nM; on Cbl-b [2] it was 50 to 500 nM.

In the case of `Cn1cnnc1CC1(c2cccc(N3Cc4c(cc(CN5CCC(CN6CCN(c7cccc8c7C(=O)N(C7CCC(=O)NC7=O)C8=O)CC6)CC5)cc4C(F)(F)F)C3=O)c2)COC1` (stereo not drawn) [Example 88, 2-(2,6-dioxopiperidin-3-yl)-4-(4-((1-((2-(3-(3-((4-methyl-4H-1,2,4-triazol-3-yl)methyl)oxetan-3-yl)phenyl)-3-oxo-7-(trifluoromethyl)isoindolin-5-yl)methyl)piperidin-4-yl)methyl)piperazin-1-yl)isoindoline-1,3-dione], the DC50 at Cbl-b [1] and at Cbl-b [2] was above 500 nM throughout.

For the compound `Cn1cnnc1CC1(c2cccc(N3Cc4c(cc(CN5CCC(COCCOCCOc6ccc7c(c6)C(=O)N(C6CCC(=O)NC6=O)C7=O)CC5)cc4C(F)(F)F)C3=O)c2)COC1` (stereo not drawn) [Example 89, 2-(2,6-dioxopiperidin-3-yl)-5-(2-{2-[(1-{[2-(3-{3-[(4-methyl-4H-1,2,4-triazol-3-yl)methyl]oxetan-3-yl}phenyl)-3-oxo-7-(trifluoromethyl)-2,3-dihydro-1H-isoindol-5-yl]methyl}piperidin-4-yl)methoxy]ethoxy}ethoxy)-2,3-dihydro-1H-isoindole-1,3-dione], the DC50 on Cbl-b [1] and on Cbl-b [2] was above 500 nM in each case.

For orientation: Dmax means the largest share of the target that was removed. As for `C[C@H]1C[C@@H](CN2CCN(c3cccc4c3C(=O)N(C3CCC(=O)NC3=O)C4=O)CC2)CN(Cc2cc3c(c(C(F)(F)F)c2)CN(c2cccc(C4(Cc5nncn5C)COC4)c2)C3=O)C1` (stereo partly drawn) [Example 90, 2-(2,6-dioxopiperidin-3-yl)-4-(4-{[(3R,5S)-5-methyl-1-{[2-(3-{3-[(4-methyl-4H-1,2,4-triazol-3-yl)methyl]oxetan-3-yl}phenyl)-3-oxo-7-(trifluoromethyl)-2,3-dihydro-1H-isoindol-5-yl]methyl}piperidin-3-yl]methyl}piperazin-1-yl)-2,3-dihydro-1H-isoindole-1,3-dione], the DC50 at Cbl-b [1] and on Cbl-b [2] was above 500 nM in each case. For the same compound, at Cbl-b [2], the Dmax is below 35%.

As for `Cn1cnnc1CC1(c2cccc(N3Cc4c(cc(CN5CCC(COCCOCCOc6cccc7c6C(=O)N(C6CCC(=O)NC6=O)C7=O)CC5)cc4C(F)(F)F)C3=O)c2)COC1` (stereo not drawn) [Example 91, 2-(2,6-dioxopiperidin-3-yl)-4-(2-{2-[(1-{[2-(3-{3-[(4-methyl-4H-1,2,4-triazol-3-yl)methyl]oxetan-3-yl}phenyl)-3-oxo-7-(trifluoromethyl)-2,3-dihydro-1H-isoindol-5-yl]methyl}piperidin-4-yl)methoxy]ethoxy}ethoxy)-2,3-dihydro-1H-isoindole-1,3-dione], the DC50 at Cbl-b [1] and on Cbl-b [2] was above 500 nM in each case.

As for `CC1CC(CN2CC3(CCN(c4ccc5c(c4)C(=O)N(C4CCC(=O)NC4=O)C5=O)CC3)C2)CN(Cc2cc3c(c(C(F)(F)F)c2)CN(c2cccc(C4(Cc5nncn5C)COC4)c2)C3=O)C1` (stereo not drawn) [Example 92, 2-(2,6-dioxopiperidin-3-yl)-5-{2-[(5-methyl-1-{[2-(3-{3-[(4-methyl-4H-1,2,4-triazol-3-yl)methyl]oxetan-3-yl}phenyl)-3-oxo-7-(trifluoromethyl)-2,3-dihydro-1H-isoindol-5-yl]methyl}piperidin-3-yl)methyl]-2,7-diazaspiro[3.5]nonan-7-yl}-2,3-dihydro-1H-isoindole-1,3-dione], the DC50 at Cbl-b [1] and on Cbl-b [2] was above 500 nM throughout.

`C[C@H]1C[C@@H](CN2CCC(CC3CCN(c4ccc5c(c4)C(=O)N(C4CCC(=O)NC4=O)C5=O)CC3)CC2)CN(Cc2cc3c(c(C(F)(F)F)c2)CN(c2cccc(C4(Cc5nncn5C)COC4)c2)C3=O)C1` (stereo partly drawn) [Example 93, 2-(2,6-dioxopiperidin-3-yl)-5-{4-[(1-{[(3S,5S)-5-methyl-1-{[2-(3-{3-[(4-methyl-4H-1,2,4-triazol-3-yl)methyl]oxetan-3-yl}phenyl)-3-oxo-7-(trifluoromethyl)-2,3-dihydro-1H-isoindol-5-yl]methyl}piperidin-3-yl]methyl}piperidin-4-yl)methyl]piperidin-1-yl}-2,3-dihydro-1H-isoindole-1,3-dione]: on Cbl-b [1], the DC50 is below 5 nM and the greatest degradation seen (Dmax) was below 35%. Moreover, on Cbl-b [2], the DC50 was 5 to 50 nM and the Dmax was 35 to 70%.

On to `CC1CC(CN2CCC(CC3CCN(c4ccc5c(c4)C(=O)N(C4CCC(=O)NC4=O)C5=O)CC3)CC2)CN(Cc2cc3c(c(C(F)(F)F)c2)CN(c2cccc(C4(Cc5nncn5C)COC4)c2)C3=O)C1` (stereo not drawn) [Example 94, 2-(2,6-dioxopiperidin-3-yl)-5-[4-({1-[(5-methyl-1-{[2-(3-{3-[(4-methyl-4H-1,2,4-triazol-3-yl)methyl]oxetan-3-yl}phenyl)-3-oxo-7-(trifluoromethyl)-2,3-dihydro-1H-isoindol-5-yl]methyl}piperidin-3-yl)methyl]piperidin-4-yl}methyl)piperidin-1-yl]-2,3-dihydro-1H-isoindole-1,3-dione], for which, at Cbl-b [1], the DC50 was below 5 nM and the Dmax was 35 to 70%. For the same compound, at Cbl-b [2], the DC50 lay in the range of 5 to 50 nM and the Dmax fell in the range of 35 to 70%.

With `CC1CC(N2CCC(CC3CCN(c4ccc5c(c4)C(=O)N(C4CCC(=O)NC4=O)C5=O)CC3)CC2)CN(Cc2cc3c(c(C(F)(F)F)c2)CN(c2cccc(C4(Cc5nncn5C)COC4)c2)C3=O)C1` (stereo not drawn) [Example 95, 2-(2,6-dioxopiperidin-3-yl)-5-{4-[(5′-methyl-1′-{[2-(3-{3-[(4-methyl-4H-1,2,4-triazol-3-yl)methyl]oxetan-3-yl}phenyl)-3-oxo-7-(trifluoromethyl)-2,3-dihydro-1H-isoindol-5-yl]methyl}-[1,3′-bipiperidin]-4-yl)methyl]piperidin-1-yl}-2,3-dihydro-1H-isoindole-1,3-dione], the DC50 at Cbl-b [1] was above 500 nM; at Cbl-b [2] it was 50 to 500 nM.

Regarding `Cn1cnnc1CC1(c2cccc(N3Cc4c(cc(CN5CCC[C@H](CN6CCC(C7CCN(c8ccc9c(c8)C(=O)N(C8CCC(=O)NC8=O)C9=O)CC7)CC6)C5)cc4C(F)(F)F)C3=O)c2)COC1` (stereo partly drawn) [Example 96, 2-(2,6-dioxopiperidin-3-yl)-5-(1′-{[(3R)-1-{[2-(3-{3-[(4-methyl-4H-1,2,4-triazol-3-yl)methyl]oxetan-3-yl}phenyl)-3-oxo-7-(trifluoromethyl)-2,3-dihydro-1H-isoindol-5-yl]methyl}piperidin-3-yl]methyl}-[4,4′-bipiperidin]-1-yl)-2,3-dihydro-1H-isoindole-1,3-dione], the DC50 on Cbl-b [1] and on Cbl-b [2] was above 500 nM throughout.

Turning to `Cn1cnnc1CC1(c2cccc(N3Cc4c(cc(CN5CCC[C@H](CN6CCC(CN7CCC(CN8CCN(c9ccc%10c(c9)C(=O)N(C9CCC(=O)NC9=O)C%10=O)CC8)CC7)CC6)C5)cc4C(F)(F)F)C3=O)c2)COC1` (stereo partly drawn) [Example 97, 2-(2,6-dioxopiperidin-3-yl)-5-[4-({1-[(1-{[(3R)-1-{[2-(3-{3-[(4-methyl-4H-1,2,4-triazol-3-yl)methyl]oxetan-3-yl}phenyl)-3-oxo-7-(trifluoromethyl)-2,3-dihydro-1H-isoindol-5-yl]methyl}piperidin-3-yl]methyl}piperidin-4-yl)methyl]piperidin-4-yl}methyl)piperazin-1-yl]-2,3-dihydro-1H-isoindole-1,3-dione], at Cbl-b [1], the DC50 is below 5 nM and the Dmax lay within 35 to 70%. In addition, at Cbl-b [2], the DC50 lay within 5 to 50 nM and the greatest degradation seen (Dmax) is above 70%.

As to `Cn1cnnc1CC1(c2cccc(N3Cc4c(cc(CN5CCC[C@H](CN6CCC7(CC6)CCN(c6ccc8c(c6)C(=O)N(C6CCC(=O)NC6=O)C8=O)CC7)C5)cc4C(F)(F)F)C3=O)c2)COC1` (stereo partly drawn) [Example 98, 2-(2,6-dioxopiperidin-3-yl)-5-(9-{[(3R)-1-{[2-(3-{3-[(4-methyl-4H-1,2,4-triazol-3-yl)methyl]oxetan-3-yl}phenyl)-3-oxo-7-(trifluoromethyl)-2,3-dihydro-1H-isoindol-5-yl]methyl}piperidin-3-yl]methyl}-3,9-diazaspiro[5.5]undecan-3-yl)-2,3-dihydro-1H-isoindole-1,3-dione], the DC50 on Cbl-b [1] and at Cbl-b [2] was above 500 nM each time.
